Laboratory results taken from patent US20240417405A1, “Substituted Spiro Derivatives” (Janssen Pharmaceutica NV, priority 2021, published 2024).

What was measured:
[1] = biological target: T1, menin/MLL (terbium chelate-labeled menin, FITC-MBM1 peptide) (Homo sapiens, UniProt O00255, T541A); test: Menin/MLL homogenous time-resolved fluorescence (HTRF) assay; type: binding; conditions: 30 min incubation
T1 construct: Menin (a.a 1-610-6xhis tag)
T1 sequence (O00255 with tags, fused parts or gaps T541A): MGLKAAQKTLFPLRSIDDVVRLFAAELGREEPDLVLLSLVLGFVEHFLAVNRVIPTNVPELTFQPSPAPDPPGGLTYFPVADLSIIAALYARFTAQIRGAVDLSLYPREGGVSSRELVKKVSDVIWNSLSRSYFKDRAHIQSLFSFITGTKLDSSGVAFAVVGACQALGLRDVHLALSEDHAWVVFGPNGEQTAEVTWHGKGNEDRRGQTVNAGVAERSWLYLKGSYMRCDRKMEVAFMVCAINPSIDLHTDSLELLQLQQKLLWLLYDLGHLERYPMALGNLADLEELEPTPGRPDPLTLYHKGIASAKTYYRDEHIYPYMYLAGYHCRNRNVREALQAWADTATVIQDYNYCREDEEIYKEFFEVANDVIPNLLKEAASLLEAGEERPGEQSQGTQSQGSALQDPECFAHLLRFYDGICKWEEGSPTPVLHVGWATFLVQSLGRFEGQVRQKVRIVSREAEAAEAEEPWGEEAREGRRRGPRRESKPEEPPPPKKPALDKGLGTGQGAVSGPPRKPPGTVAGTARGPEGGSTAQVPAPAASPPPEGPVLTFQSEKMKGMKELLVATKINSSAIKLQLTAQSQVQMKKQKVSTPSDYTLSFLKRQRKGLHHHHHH
Summary of the method: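 Compounds were preincubated 30 min at ambient temperature with 200 pM terbium-labeled menin (aa 1-610, His-tagged) in Tris pH 7.5 buffer with DTT and Pluronic, then 75 nM FITC-MBM1 peptide added for 15 min. HTRF ratio 520/490 nm gave % inhibition; IC50 from four-parameter fit, floor 0.1 nM.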

MOLM14 cells = test: Proliferation assay, spheroid-like growth, MOLM14 (MLL-AF9 rearranged); type: cell-based, human; conditions: Homo sapiens, MOLM-14, 192 h, 8 days, confluence as measure of spheroid size, read-out: spheroid assay_OneTime MOLM14 IC50
Summary of the method: (§1)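 IC50 derived from a variable-slope dose-response fit of percent confluence change, with DMSO-treated cells as high control and high-dose reference compound as low control. Spheroid-like growth of MOLM14 (200 cells/well) or KO-52 (300 cells/well) in ultra-low attachment plates, 8 days, 37° C, 5% CO2, DMSO normalised to 0.3%, imaged at day 8.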

KO-52 cells = test: Proliferation assay, spheroid-like growth, KO-52 (MLL wildtype control cell line); type: cell-based, human; conditions: Homo sapiens, 192 h, KO-52 control cells, 8 days, confluence as measure of spheroid size; read-out: spheroid assay_OneTime KO-52 IC50
Summary of the method: as §1

Structure (SMILES) | IC50 [1] | IC50 (MOLM14 cells) | IC50 (KO-52 cells)
CO[C@H]1CCN([C@H]2C[C@H]([C@H](C(C)C)N3CC4(CCN(c5ncnnc5Oc5ccc(F)cc5-c5cnncc5C5CC5)C4)C3)C2)C1 (single isomer, unassigned) [Compound 109] | 0.1 nM | 53 nM | > 15000 nM
CC(C)[C@H]([C@H]1C[C@@H](N2C[C@H]3COC[C@H]3C2)C1)N1CC2(CCN(c3ncnnc3Oc3ccc(F)cc3-c3cncnc3C3CC3)C2)C1 (single isomer, unassigned) [Compound 14] | 0.1 nM | 2 nM | 2110 nM
CC(=O)N1CCC12CN([C@H]1C[C@H]([C@@H](C(C)C)N3CC4(CCN(c5ncnnc5Oc5ccc(F)cc5-c5cncnc5C5CC5)C4)C3)C1)C2 (single isomer, unassigned) [Compound 173] | 0.2 nM | 150 nM | > 15000 nM
CC(C)[C@@H]([C@H]1C[C@@H](N2C[C@H]3COC[C@H]3C2)C1)N1CC2(CCN(c3ncnnc3Oc3ccc(F)cc3-c3nnccc3C3CC3)C2)C1 (single isomer, unassigned) [Compound 258] | 0.1 nM | 4 nM | 490 nM
CC(C)[C@H]([C@H]1C[C@@H](N2CC3(COC3)C2)C1)N1CC2(CCN(c3ncnnc3Oc3ccc(F)cc3-c3ncc(C#N)cc3C3CC3)C2)C1 (single isomer, unassigned) [Compound 94] | 0.1 nM | 25 nM | 3390 nM
CC(C)[C@@H]([C@H]1C[C@@H](N2CC(OC3CC3)C2)C1)N1CC2(CCN(c3ncnnc3Oc3ccc(F)cc3-c3nnccc3C3CC3)C2)C1 (single isomer, unassigned) [Compound 274] | 0.1 nM | 2 nM | 3560 nM
CC(C)[C@H]([C@H]1C[C@@H](NC(=O)C2CC2)C1)N1CC2(CCN(c3ncnnc3Oc3ccc(F)cc3-c3ncccc3C3CC3)C2)C1 (single isomer, unassigned) [Compound 27] | 0.1 nM | 36 nM | 5560 nM
CC(C)[C@H]([C@H]1C[C@@H](N2C[C@@H]3[C@H](C2)[C@H]3C(=O)N(C)C)C1)N1CC2(CCN(c3ncnnc3Oc3ccc(F)cc3-c3cncnc3C3CC3)C2)C1 (single isomer, unassigned) [Compound 248] | 0.1 nM | 4 nM | 1460 nM
CC(C)[C@H]([C@H]1C[C@@H](N2CC[C@H](C(C)(C)O)C2)C1)N1CC2(CCN(c3ncnnc3Oc3ccc(F)cc3-c3cncnc3C3CC3)C2)C1 (single isomer, unassigned) [Compound 68] | 0.1 nM | 5 nM | 4410 nM
CC(C)[C@H]([C@H]1C[C@@H](N2CCC(S(C)(=O)=O)CC2)C1)N1CC2(CCN(c3ncnnc3Oc3ccc(F)cc3-c3cncnc3C3CC3)C2)C1 (single isomer, unassigned) [Compound 9] | 0.1 nM | 21 nM | 7160 nM
CC(C)[C@H]([C@H]1C[C@@H](N2CCC(S(C)(=O)=O)CC2)C1)N1CC2(CCN(c3ncnnc3Oc3ccc(F)cc3-c3ncccc3C3CC3)C2)C1 (single isomer, unassigned) [Compound 25] | 0.1 nM | 85 nM | 5570 nM
O=c1cc(C2CC2)c(-c2cc(F)ccc2Oc2nncnc2N2CCC3(C2)CN([C@@H](C2CCN(CC4COC4)CC2)C24CC(C2)C4)C3)n[nH]1 (single isomer, unassigned) [Compound 339] | 0.4 nM | > 940 nM | > 15000 nM
CC(C)C([C@H]1C[C@H](N(C)C)C1)N1CC2(CCN(c3ncnnc3Oc3ccc(F)cc3-c3cncnc3C3CC3)C2)C1 (single isomer, unassigned) [Compound 8] | 0.3 nM | 52 nM | 10200 nM
CC(C)[C@H]([C@H]1C[C@@H](N2CCC[C@H](F)C2)C1)N1CC2(CCN(c3ncnnc3Oc3ccc(F)cc3-c3cncnc3C3CC3)C2)C1 (single isomer, unassigned) [Compound 200] | 0.1 nM | 16 nM | 9710 nM
COCC(=O)N[C@H]1C[C@@H]([C@@H](C(C)C)N2CC3(CCN(c4ncnnc4Oc4ccc(F)cc4-c4cncnc4C4CC4)C3)C2)C1 (single isomer, unassigned) [Compound 299] | 0.2 nM | 34 nM | 8350 nM
CC(C)[C@H]([C@H]1C[C@@H](N(C)CCCS(C)(=O)=O)C1)N1CC2(CCN(c3ncnnc3Oc3ccc(F)cc3-c3cncnc3C3CC3)C2)C1 (single isomer, unassigned) [Compound 242] | 0.1 nM | 8 nM | 12200 nM
CC(C)[C@H]([C@H]1C[C@@H](NC(=O)C2CC2)C1)N1CC2(CCN(c3ncnnc3Oc3ccc(F)cc3-c3nnccc3C3CC3)C2)C1 (single isomer, unassigned) [Compound 304] | 0.1 nM | 32 nM | 12100 nM
CC(C)[C@H]([C@H]1C[C@@H](N2CCC3(CCCO3)C2)C1)N1CC2(CCN(c3ncnnc3Oc3ccc(F)cc3-c3nnccc3C3CC3)C2)C1 (single isomer, unassigned) [Compound 271] | 2.4 nM | 260 nM | > 15000 nM
CC(=O)N1CCN([C@H]2C[C@@H]([C@@H](C(C)C)N3CC4(CCN(c5ncnnc5Oc5ccc(F)cc5-c5ncc(C#N)cc5C5CC5)C4)C3)C2)CC1 (single isomer, unassigned) [Compound 79] | 0.3 nM | 240 nM | 3660 nM
CC(C)[C@H]([C@H]1C[C@H](N2CCC2)C1)N1CC2(CCN(c3ncnnc3Oc3ccc(F)cc3-c3cncnc3C3CC3)C2)C1 (single isomer, unassigned) [Compound 345] | 1 nM | 55 nM | 7400 nM
CC(C)C(C1CCN(CC2COC2)CC1)N1CC2(CCN(c3ncnnc3Oc3ccc(F)cc3-c3cncnc3C3CC3)C2)C1 (stereo not drawn) [Compound 6] | 0.3 nM | 280 nM | 6470 nM
CC(C)[C@H]([C@H]1C[C@H](N2CC(O)C3(CC3)C2)C1)N1CC2(CCN(c3ncnnc3Oc3ccc(F)cc3-c3cncnc3C3CC3)C2)C1 (mixture of isomers) [Compound 43] | 0.1 nM | 42 nM | 9960 nM
CC(C)[C@H]([C@H]1C[C@@H](N2CCC3(CCO3)CC2)C1)N1CC2(CCN(c3ncnnc3Oc3ccc(F)cc3-c3nnccc3C3CC3)C2)C1 (single isomer, unassigned) [Compound 252] | 12.7 nM | 270 nM | > 15000 nM
CC(C)[C@H]([C@H]1C[C@H](N2CCC3(CCO3)CC2)C1)N1CC2(CCN(c3ncnnc3Oc3ccc(F)cc3-c3cnncc3C3CC3)C2)C1 (single isomer, unassigned) [Compound 280b] | 2.4 nM | 740 nM | > 15000 nM
CC(C)[C@H](C1CCN(C[C@H]2C[C@@](C)(O)C2)CC1)N1CC2(CCN(c3ncnnc3Oc3ccc(F)cc3-c3cccnc3C3CC3)C2)C1 (single isomer, unassigned) [Compound 351] | 0.1 nM | 20 nM | 1100 nM
CC(C)[C@H]([C@H]1C[C@@H](N2CCC(C)(C(=O)N(C)C)C2)C1)N1CC2(CCN(c3ncnnc3Oc3ccc(F)cc3-c3cncnc3C3CC3)C2)C1 (stereo partly drawn) [Compound 161] | 0.1 nM | 4 nM | 3360 nM
CC(C)[C@@H]([C@H]1C[C@@H](N(C)C)C1)N1CC2(CCN(c3ncnnc3Oc3ccc(F)cc3-c3ncccc3C3CC3)C2)C1 (single isomer, unassigned) [Compound 153] | 5.3 nM | 730 nM | 4830 nM
CC(C)[C@H]([C@H]1C[C@H](N2CCCCC2)C1)N1CC2(CCN(c3ncnnc3Oc3ccc(F)cc3-c3cncnc3C3CC3)C2)C1 (single isomer, unassigned) [Compound 49] | 0.6 nM | 27 nM | 2130 nM
CC(C)C(C1CCN(CC2COC2)CC1)N1CC2(CCN(c3ncnnc3Oc3ccc(F)cc3-c3ncncc3C3CC3)C2)C1 (stereo not drawn) [Compound 203] | 0.8 nM | 300 nM | 1860 nM
